According to patent US8916536B2, “Bone-targeting bisphosphonate duplex drugs” (priority 2010, dated 2014):
Structures can show the parent of a compound that is named as a salt. One block for each compound: values may come before it.

How the values were obtained:
[1] = system: 6 different tumor cell lines; details: 6 days of incubation, in average, read-out: concentration for 50% growth inhibition; cited from earlier work
CAKI-1 = experiment: NCI 60-cell line in vitro screen (SRB), growth percent; format: cell-based; details: CAKI-1, Renal cancers; 10 μM, 48 h incubation; 100% = growth without drug
MALME-3M = experiment: as above; format: cell-based; details: Melanomas, 10 μM, 48 h incubation, 100% = growth without drug
NCI-H322M = experiment: as above; format: cell-based; details: Non-small cell lung cancer, 10 μM, 48 h incubation, 100% = growth without drug
60 tumor cell lines = experiment: NCI 60-cell line in vitro screen, whole panel; format: cell-based; details: 48/59 cell lines; 10 μM, 48 h incubation
[2] = Stability in acidic conditions (pH 2, 50° C., 24 h; TLC / UV ratio); format: physicochemical
Experimental: (§1) A solution of 5-FdU-ale (475 mg) in 100 ml H2O was acidified to pH 2 by adding HCl and stirred at 50° C. for 24 h, followed by neutralization with solid sodium carbonate. UV-active degradation products were not detectable at 254 nm by TLC-analysis with CHCl3/MeOH (80:20) using silica gel plates. The hydroxyapatite binding of the pretreated 5-FdU-ale was analyzed as described above.
The binding study was also used for an indirect assessment of the stability of the nucleoside-BPs in acidic conditions. Binding was reduced by 13% compared to the untreated compound when a solution of 5-FdU-ale was acidified to pH 2 and kept at 50° C. during 24 h prior to the adsorption to hydroxyapatite. The unchanged A250/260 and 280/260 UV-ratio indicate that no cleavage of 5-FdU-ale into the monomer 5-FdU+ ale occurs during treatment with hydroxyapatite under the used conditions.
Thus, the absence of UV-active compounds allows to conclude that 5-FdU-ale is very stable in acidic conditions.

OVCAR-3 = experiment: NCI 60-cell line in vitro screen (SRB), growth percent; format: cell-based; details: OVCAR-3, Ovarian cancers; 10 μM, 48 h incubation; 100% = growth without drug
HOP-62 = experiment: as above; format: cell-based; details: HOP-62, Non-small cell lung cancer; 10 μM, 48 h incubation; 100% = growth without drug
MDA-MB-435 = experiment: as above; format: cell-based; details: MDA-MB-435, Melanomas; 10 μM, 48 h incubation; 100% = growth without drug
[3] = Hydroxyapatite binding of nucleoside-BPs; format: physicochemical
Experimental: It is known that the BPs moiety of conjugates preserves its high affinity for the bone matrix even when coupled to a bulk residue^17,41 The high affinity to the bone matrix is based on the strong binding properties of BPs to hydroxyapatite^42, 43, 44. For this reasons, we analyzed the adsorption properties of 5-FdU-ale and 5-FdU to hydroxyapatite.
5-FdU (246 mg, 1 mmol) or 5-FdU-ale (475 mg) were dissolved in distilled water (100 ml). The A260-units of the obtained solution and the absorbance ratios of 250/260 and 280/260 were determined using an UV-spectrophotometer. After addition of solid hydroxyapatite as listed in Table 2 the obtained suspension was stirred at room temperature for 24 h. Then, an aliquot (1 ml) of the suspension was filtered through a sterile filter and the A260-units of the filtrate were measured. The amount of drug bound to hydroxyapatite was calculated on the basis of the decreased A260-units of the suspension.
as §1

SF-539 = experiment: NCI 60-cell line in vitro screen (SRB), growth percent; format: cell-based; details: SF-539, CNS cancer; 10 μM, 48 h incubation; 100% = growth without drug
HL-60 (TB) = experiment: as above; format: cell-based; details: Leukemia, 10 μM, 48 h incubation, 100% = growth without drug
SF-268 = experiment: as above; format: cell-based; details: SF-268, CNS cancer; 10 μM, 48 h incubation; 100% = growth without drug
EKVX = experiment: as above; format: cell-based; details: Non-small cell lung cancer, 10 μM, 48 h incubation, 100% = growth without drug
SNB-75 = experiment: as above; format: cell-based; details: SNB-75, CNS cancer; 10 μM, 48 h incubation; 100% = growth without drug
[4] = hydroxyapatite 5 g, drug in 100 ml water, 24 h room temperature
[5] = hydroxyapatite 7 g, acid pretreatment (pH 2, 50° C., 24 h, then neutralized)
[6] = hydroxyapatite 7 g, drug in 100 ml water, 24 h room temperature

SMILES: NCCCC(O)(P(=O)(O)O)P(=O)(O)O [alendronate, (4-Amino-1-hydroxy-1-phosphonobutyl)phosphonate monosodium salt*3H20]
IC50 [1]: 11 to 1860 µM

SMILES: O=P(O)(O)C(Cl)(Cl)P(=O)(O)O [Clondronat]
IC50 [1]: 1 to 1410 µM

SMILES: O=c1nc(NCCCC(O)(P(=O)(O)O)P(=O)(O)O)c(F)cn1C1CC(O)C(CO)O1 (centres unmarked) [6a, N^4-[butyl-(4-hydroxy-4-phosphono)phosphonate]-5-fluoro-2′-deoxycytidine]
Growth [%] (CAKI-1): 79.14%
Growth [%] (MALME-3M): 89.24%
Growth [%] (NCI-H322M): 88.84%
growth inhibition in the other cell lines (60 tumor cell lines): did not show any growth inhibition
cleavage into the monomers 5-FdU + ale ([2]; during treatment with hydroxyapatite, unchanged A250/260 and 280/260 UV-ratio): no cleavage
stability in acidic conditions ([2]; pH 2, 50° C., 24 h, TLC of supernatant, no UV-active compounds): very stable
Growth [%] (OVCAR-3): 88.34%
Growth [%] (HOP-62): 93.16%
Growth [%] (MDA-MB-435): 86.95%
reduction of binding compared to the untreated compound ([3]; acidified to pH 2, 50° C., 24 h prior to adsorption): 13%
Bound drug % [3, 4]: 41%
Bound drug mg [3, 4]: 195 mg
adsorption to hydroxyapatite relative to 5-FdU ([3]; hydroxyapatite 7 g): approximately sixfold higher
Bound drug % [3, 5]: 74%
Bound drug mg [3, 5]: 352 mg
Bound drug % [3, 6]: 87%
Bound drug mg [3, 6]: 414 mg
Growth [%] (SF-539): 94.79%
Growth [%] (HL-60 (TB)): 61.75%
Growth [%] (SF-268): 86.64%
Growth [%] (EKVX): 82.45%
Growth [%] (SNB-75): 87.12%

Bound drug % [3, 6]: 15%
Bound drug mg [3, 6]: 37 mg
SMILES: O=c1[nH]c(=O)n([C@H]2C[C@H](O)[C@@H](CO)O2)cc1F [5-FdU, 2′-deoxy-5-fluorouridine, reference compound]
